Results on 30 molecules are retold here after ChEMBL document CHEMBL1140810, “Conversion of an MMP-potent scaffold to an MMP-selective HER-2 sheddase inhibitor via scaffold hybridization and subtle P1' permutations” (Bioorg Med Chem Lett, 2008).

Usually IC50 stands for the concentration needed to halve the response being measured. A lower IC50 goes with higher potency.

Where only a bound is given, the exact number is not on record here.

The target in assay [1] is T1, Disintegrin and metalloproteinase domain-containing protein 10 (Homo sapiens, UniProt O14672).
T1 sequence (O14672 whole entry): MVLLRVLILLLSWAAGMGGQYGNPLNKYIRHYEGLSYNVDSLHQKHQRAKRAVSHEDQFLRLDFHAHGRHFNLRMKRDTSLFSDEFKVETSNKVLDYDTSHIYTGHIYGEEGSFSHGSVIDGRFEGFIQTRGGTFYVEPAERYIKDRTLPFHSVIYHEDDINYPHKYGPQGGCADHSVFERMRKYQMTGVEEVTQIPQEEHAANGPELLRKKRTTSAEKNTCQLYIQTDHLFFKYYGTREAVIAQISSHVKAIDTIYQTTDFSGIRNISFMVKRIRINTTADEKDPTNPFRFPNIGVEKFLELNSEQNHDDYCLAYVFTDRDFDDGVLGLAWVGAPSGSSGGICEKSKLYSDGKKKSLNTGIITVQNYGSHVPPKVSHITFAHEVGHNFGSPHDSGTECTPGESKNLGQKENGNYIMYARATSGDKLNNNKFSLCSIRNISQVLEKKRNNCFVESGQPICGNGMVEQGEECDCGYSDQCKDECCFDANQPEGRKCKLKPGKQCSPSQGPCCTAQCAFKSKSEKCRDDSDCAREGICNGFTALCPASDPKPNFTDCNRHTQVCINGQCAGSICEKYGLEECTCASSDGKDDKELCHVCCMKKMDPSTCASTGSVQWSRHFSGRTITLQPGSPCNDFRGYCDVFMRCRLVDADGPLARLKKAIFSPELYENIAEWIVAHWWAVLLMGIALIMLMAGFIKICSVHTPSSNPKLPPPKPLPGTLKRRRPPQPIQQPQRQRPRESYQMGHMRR

Assay [2] concerns the target T1, Disintegrin and metalloproteinase domain-containing protein 10. The assay is described as follows: Inhibition of HER2 sheddase in human BT474 cells. The format is cell-based, BT-474.
Assay [3] deals with Matrix metalloproteinase-9 (Homo sapiens, UniProt P14780). The assay is described as follows: Inhibition of MMP9.
Matrix metalloproteinase-9, sequence (P14780 whole entry): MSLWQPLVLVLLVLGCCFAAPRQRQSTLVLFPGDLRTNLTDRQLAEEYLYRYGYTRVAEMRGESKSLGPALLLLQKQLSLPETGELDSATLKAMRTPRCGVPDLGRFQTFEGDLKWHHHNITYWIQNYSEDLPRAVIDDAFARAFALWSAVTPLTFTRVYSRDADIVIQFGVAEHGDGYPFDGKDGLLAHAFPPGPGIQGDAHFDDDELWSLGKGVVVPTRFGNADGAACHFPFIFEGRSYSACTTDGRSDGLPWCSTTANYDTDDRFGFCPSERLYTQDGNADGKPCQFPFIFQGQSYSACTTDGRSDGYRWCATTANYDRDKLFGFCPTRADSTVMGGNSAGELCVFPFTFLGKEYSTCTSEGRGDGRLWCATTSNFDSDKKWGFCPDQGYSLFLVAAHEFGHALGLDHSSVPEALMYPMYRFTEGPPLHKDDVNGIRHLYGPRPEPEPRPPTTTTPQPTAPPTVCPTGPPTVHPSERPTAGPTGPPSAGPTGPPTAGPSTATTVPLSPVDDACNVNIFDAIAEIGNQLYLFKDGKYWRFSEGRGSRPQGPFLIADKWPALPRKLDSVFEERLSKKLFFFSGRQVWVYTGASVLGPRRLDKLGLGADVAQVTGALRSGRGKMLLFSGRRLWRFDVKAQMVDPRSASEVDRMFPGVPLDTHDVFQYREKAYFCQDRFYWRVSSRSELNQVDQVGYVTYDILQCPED
The target of assay [4] is 72 kDa type IV collagenase (Homo sapiens, UniProt P08253).
72 kDa type IV collagenase, sequence (P08253 whole entry): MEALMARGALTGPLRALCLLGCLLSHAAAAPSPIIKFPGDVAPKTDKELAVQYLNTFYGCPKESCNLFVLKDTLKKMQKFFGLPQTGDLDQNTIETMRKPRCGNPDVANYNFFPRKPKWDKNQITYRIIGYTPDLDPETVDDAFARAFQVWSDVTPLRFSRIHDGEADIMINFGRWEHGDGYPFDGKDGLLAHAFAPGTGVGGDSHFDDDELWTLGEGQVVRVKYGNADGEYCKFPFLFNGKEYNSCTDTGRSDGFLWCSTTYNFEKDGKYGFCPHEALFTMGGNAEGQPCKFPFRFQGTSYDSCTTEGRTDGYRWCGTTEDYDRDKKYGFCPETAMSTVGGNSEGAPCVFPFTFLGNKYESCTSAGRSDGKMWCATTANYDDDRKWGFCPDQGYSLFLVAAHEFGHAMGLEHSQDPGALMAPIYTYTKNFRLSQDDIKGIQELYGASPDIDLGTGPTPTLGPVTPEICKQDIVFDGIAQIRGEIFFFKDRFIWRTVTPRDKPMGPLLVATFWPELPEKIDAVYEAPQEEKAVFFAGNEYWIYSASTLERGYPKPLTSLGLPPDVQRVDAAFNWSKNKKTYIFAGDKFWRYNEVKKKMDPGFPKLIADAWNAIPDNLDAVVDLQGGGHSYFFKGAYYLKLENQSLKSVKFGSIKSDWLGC
In the next assay the target is T2, Interstitial collagenase (Homo sapiens, UniProt P03956).
T2 sequence (P03956 whole entry): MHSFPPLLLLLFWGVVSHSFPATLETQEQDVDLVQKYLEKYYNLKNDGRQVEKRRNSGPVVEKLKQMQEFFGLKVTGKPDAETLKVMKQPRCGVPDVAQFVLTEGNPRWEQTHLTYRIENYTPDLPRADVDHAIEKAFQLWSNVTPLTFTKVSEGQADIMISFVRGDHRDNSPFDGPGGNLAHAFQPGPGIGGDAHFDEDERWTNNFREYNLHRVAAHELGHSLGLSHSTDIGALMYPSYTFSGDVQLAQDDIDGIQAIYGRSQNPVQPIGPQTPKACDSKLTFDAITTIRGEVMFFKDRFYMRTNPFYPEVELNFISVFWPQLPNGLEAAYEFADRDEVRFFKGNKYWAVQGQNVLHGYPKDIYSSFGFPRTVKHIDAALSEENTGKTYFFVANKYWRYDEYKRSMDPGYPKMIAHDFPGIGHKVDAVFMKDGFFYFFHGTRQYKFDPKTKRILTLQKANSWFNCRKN

The target of a further assay is Stromelysin-1 (Homo sapiens, UniProt P08254). Put plainly: Inhibition of MMP3.
Stromelysin-1, sequence (P08254 whole entry): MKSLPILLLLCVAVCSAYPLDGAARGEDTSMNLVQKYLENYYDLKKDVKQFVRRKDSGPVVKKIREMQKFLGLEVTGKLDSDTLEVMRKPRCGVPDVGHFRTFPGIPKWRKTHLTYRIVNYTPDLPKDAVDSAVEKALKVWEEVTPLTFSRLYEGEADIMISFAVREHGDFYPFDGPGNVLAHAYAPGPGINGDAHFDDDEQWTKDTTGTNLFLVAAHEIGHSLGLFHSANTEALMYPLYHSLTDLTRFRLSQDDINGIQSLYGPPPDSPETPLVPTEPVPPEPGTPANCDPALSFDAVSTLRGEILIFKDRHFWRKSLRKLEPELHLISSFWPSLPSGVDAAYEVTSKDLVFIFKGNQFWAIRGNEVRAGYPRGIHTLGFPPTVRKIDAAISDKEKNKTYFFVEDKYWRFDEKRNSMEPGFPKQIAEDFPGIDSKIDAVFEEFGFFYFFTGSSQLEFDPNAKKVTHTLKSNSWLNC

As for `O=C(O[C@H]1CCOC1)N1CCC(CS(=O)(=O)N2CC=C(c3ccccc3)CC2)(C(=O)NO)CC1`, the 50% inhibitory concentration (IC50) in assay [1] was 10 nM; in assay [2], 7.1 nM; in assay [3], 25 nM; in assay [4] it was 4 nM; against Interstitial collagenase, 259 nM; on Stromelysin-1, 237 nM.
As to `Cc1ccccc1N1CCN(S(=O)(=O)CC2(C(=O)NO)CCN(C(=O)O[C@H]3CCOC3)CC2)CC1`, the IC50 in assay [1] is 107 nM; in assay [2], 217 nM; in assay [4], over 2000 nM.
For `Cc1cc(C#N)ccc1C1=CCN(S(=O)(=O)CC2(C(=O)NO)CCN(C(=O)O[C@H]3CCOC3)CC2)CC1`, in that order: 107 nM, 45 nM and 1560 nM.
Consider `Cc1ccccc1C1=CCN(S(=O)(=O)CC2(C(=O)NO)CCN(C(=O)O[C@H]3CCOC3)CC2)CC1`, for which the IC50 in assay [1] was 18 nM; in assay [2] it was 133 nM; in assay [4] it was 2000 nM.
Consider `Cc1cc(C#N)ccc1N1CCN(S(=O)(=O)CC2(C(=O)NO)CCN(C(=O)O[C@H]3CCOC3)CC2)CC1`, for which the half-inhibitory concentration (IC50) in assay [1] is 26 nM; in assay [2] it was 25 nM; in assay [3], over 5000 nM; in assay [4], over 5000 nM; at Interstitial collagenase, over 5000 nM; against Stromelysin-1 it was over 5000 nM.
In the case of `Cc1ccccc1C1CCN(S(=O)(=O)CC2(C(=O)NO)CCN(C(=O)OC3CCNC3)CC2)CC1` (stereo unspecified), the IC50 is 18 nM in assay [1], 16 nM in assay [2], 546 nM in assay [4] and over 5000 nM on Interstitial collagenase.
Turning to `O=C(O[C@H]1CCOC1)N1CCC(CS(=O)(=O)N2CCC(c3ccccc3F)CC2)(C(=O)NO)CC1`, the IC50 is 44 nM in assay [1]; 76 nM in assay [2]; 100 nM in assay [3]; 135 nM in assay [4]; over 5000 nM against Interstitial collagenase; 942 nM against Stromelysin-1.
Regarding `N#Cc1ccccc1C1CCN(S(=O)(=O)CC2(C(=O)NO)CCN(C(=O)O[C@H]3CCOC3)CC2)CC1`, the IC50 is over 2000 nM in assay [1], over 1000 nM in assay [2] and over 2000 nM in assay [4].
`Cc1ccccc1C1CCN(S(=O)(=O)CC2(C(=O)NO)CCN(C(=O)OC[C@@H]3CCCN3)CC2)CC1`: the IC50 in assay [1] is 34 nM; in assay [2] it was 23 nM; in assay [4], over 2000 nM; on Interstitial collagenase, over 5000 nM.
For `Cc1ccccc1C1CCN(S(=O)(=O)CC2(C(=O)NO)CCN(C(=O)OC[C@H]3CCCN3)CC2)CC1`, the IC50 was 19 nM in assay [1], 30 nM in assay [2], over 2000 nM in assay [4] and over 5000 nM against Interstitial collagenase.
For `Cc1cc(C#N)ccc1C1CCN(S(=O)(=O)CC2(C(=O)NO)CCN(C(=O)OC[C@@H]3CCCN3)CC2)CC1` the same measures were 9.1 nM, 6.5 nM, 1270 nM and over 5000 nM.
`Cc1ccccc1C1CCN(S(=O)(=O)CC2(C(=O)NO)CCN(C(=O)O[C@H]3CCOC3)CC2)CC1`: the IC50 is 18 nM in assay [1]; 41 nM in assay [2]; over 5000 nM in assay [3]; over 2000 nM in assay [4]; over 5000 nM against Interstitial collagenase; over 5000 nM on Stromelysin-1.
Regarding `Cc1cc(C#N)ccc1C1CCN(S(=O)(=O)CC2(C(=O)NO)CCN(C(=O)OC[C@H]3CCCN3)CC2)CC1`, the IC50 in assay [1] was 11 nM; in assay [2] it was 23 nM; in assay [4] it was 1380 nM; against Interstitial collagenase, over 5000 nM.
For `Cc1cc(C(=O)N(C)C)ccc1C1CCN(S(=O)(=O)CC2(C(=O)NO)CCN(C(=O)O[C@H]3CCOC3)CC2)CC1`, the IC50 in assay [1] is over 2000 nM; in assay [2] it was over 1000 nM; in assay [4], 655 nM.
As for `Cc1cc(C#N)ccc1C1=CCN(S(=O)(=O)CC2(C(=O)NO)CCN(C(=O)OC[C@@H]3CCCN3)CC2)CC1`, the IC50 in assay [1] was 34 nM; in assay [2], 27 nM; in assay [4], over 2000 nM; on Interstitial collagenase, over 5000 nM.
On to `Cc1cc(C#N)ccc1C1CCN(S(=O)(=O)CC2(C(=O)NO)CCN(C(=O)O[C@H]3CCOC3)CC2)CC1`, for which the IC50 was 12 nM in assay [1]; 14 nM in assay [2]; over 5000 nM in assay [3]; 2000 nM in assay [4]; over 5000 nM on Interstitial collagenase; over 5000 nM on Stromelysin-1.
With `N#Cc1ccc(C2CCN(S(=O)(=O)CC3(C(=O)NO)CCN(C(=O)O[C@H]4CCOC4)CC3)CC2)cc1`, the IC50 was found to be 39 nM in assay [1], 77 nM in assay [2] and 9 nM in assay [4].
For `Cc1cc(C2CCN(S(=O)(=O)CC3(C(=O)NO)CCN(C(=O)O[C@H]4CCOC4)CC3)CC2)cc(C)c1C#N`, the IC50 in assay [1] is 57 nM; in assay [2], 96 nM; in assay [3], 535 nM; in assay [4], 126 nM; against Interstitial collagenase, over 5000 nM; against Stromelysin-1, 756 nM.
As for `Cc1ccccc1C1CCN(S(=O)(=O)CC2(C(=O)NO)CCN(C(=O)OC3(C)CCOC3)CC2)CC1` (stereo unspecified), the IC50 was 11 nM in assay [1], 36 nM in assay [2], 564 nM in assay [4] and over 5000 nM at Interstitial collagenase.
As to `O=C(O[C@H]1CCOC1)N1CCC(CS(=O)(=O)N2CC=C(c3ccccc3)C2)(C(=O)NO)CC1`, the IC50 stood at 332 nM in assay [1], 102 nM in assay [2] and 52 nM in assay [4].
Consider `Cc1cc(C)cc(C2CCN(S(=O)(=O)CC3(C(=O)NO)CCN(C(=O)O[C@H]4CCOC4)CC3)CC2)c1`, for which the IC50 was 286 nM in assay [1]; 833 nM in assay [2]; 955 nM in assay [3]; 315 nM in assay [4]; over 5000 nM against Interstitial collagenase; 2160 nM against Stromelysin-1.
As to `O=C(O[C@H]1CCOC1)N1CCC(CS(=O)(=O)N2CCC(c3ccccc3)C2)(C(=O)NO)CC1` (stereo partly specified), the half-maximal inhibitory concentration (IC50) in assay [1] came to 261 nM; in assay [2] it was 358 nM; in assay [4], 549 nM.
With `C#CCN1CCC(CS(=O)(=O)c2ccc(Oc3ccccc3)cc2)(C(=O)NO)CC1`, the IC50 in assay [3] is under 1.5 nM; in assay [4], under 1.5 nM; at Interstitial collagenase, 8660 nM; against Stromelysin-1, under 1.5 nM.
With `Cc1cc(C#N)ccc1C1=CCN(S(=O)(=O)CC2(C(=O)NO)CCN(C(=O)OC[C@H]3CCCN3)CC2)CC1`, the concentration for half-maximal inhibition (IC50) in assay [1] is 24 nM; in assay [2], 19 nM; in assay [4], over 2000 nM; against Interstitial collagenase, over 5000 nM.
For `Cc1cc(C#N)ccc1C1CCN(S(=O)(=O)CC2(C(=O)NO)CCN(C(=O)OC3CCNC3)CC2)CC1` (stereo unspecified) the same measures were 7.8 nM, 13 nM, over 2000 nM and over 5000 nM.
As for `O=C(O[C@H]1CCOC1)N1CCC(CS(=O)(=O)N2CCC(c3ccccc3)CC2)(C(=O)NO)CC1`, the IC50 in assay [1] amounted to 28 nM; in assay [2], 22 nM; in assay [3], 22 nM; in assay [4] it was 18 nM; against Interstitial collagenase it was 753 nM; on Stromelysin-1 it was 366 nM.
For the molecule `O=C(O[C@H]1CCOC1)N1CCC(CS(=O)(=O)N2CCC(c3ccccc3C(F)(F)F)CC2)(C(=O)NO)CC1`, the IC50 in assay [1] was 1040 nM; in assay [2] it was over 1000 nM; in assay [4], over 2000 nM.
`Cc1ccccc1C1CCN(S(=O)(=O)CC2(C(=O)NO)CCN(C(=O)OC3COCC3(C)C)CC2)CC1` (stereo unspecified): the IC50 in assay [1] was 22 nM; in assay [2], 14 nM; in assay [4], 574 nM; against Interstitial collagenase, over 5000 nM.
Turning to `Cc1cc(F)ccc1C1CCN(S(=O)(=O)CC2(C(=O)NO)CCN(C(=O)O[C@H]3CCOC3)CC2)CC1`, the IC50 in assay [1] is 92 nM; in assay [2], 141 nM; in assay [4], over 2000 nM.
In the case of `Cc1ccccc1C1CCN(S(=O)(=O)CC2(C(=O)NO)CCN(C(=O)OC3CCCC3O)CC2)CC1` (trans isomer), the half-maximal inhibitory concentration (IC50) in assay [1] was 16 nM; in assay [2], 6.2 nM; in assay [4], 537 nM; against Interstitial collagenase it was 5000 nM.
